Assay results as given in patent US20210308319A1, “TRANSITION TO TRANSLUCENT SUTURES” (University of Pittsburgh - Of the Commonwealth System of …, priority 2018, published 2021).

Test: UV-Vis spectroscopy of the rate of dissolution of dyes in water
Format: physicochemical
Conditions: excess dye in cuvette, 320-800 nm, 0 to 10 minutes
Description: An excess mass of both crystal violet and violet stearate was added to separate, clean polystyrene cuvettes. The spectrometer was calibrated to measure absorbance over the range of 320-800 nm. A background UV-Vis spectrum was then collected using a clean cuvette filled with distilled water (this spectrum is later subtracted from the dye solution spectrums to give the absorbance resulting from the dye only). The dye containing cuvettes were then loaded into the UV-Vis spectrometer. Water was then carefully syringed down the side of the first cuvette until the cuvettes were filled, and the spectrum immediately collected upon addition. […] The 20 minutes spectra are not included due to the fact they are very similar to the 10 minute spectra for both dyes tested.

Structure (SMILES)	Change of UV-Vis absorbance spectra over time after addition of water (rate of dissolution)
CN(C)c1ccc(C(=C2C=CC(=[N+](C)C)C=C2)c2ccc(N(C)C)cc2)cc1 [Crystal Violet, crystal violet]	do not change over time at all
CCCCCCCCCCCCCCCCCC(=O)[O-].CN(C)c1ccc(C(=C2C=CC(=[N+](C)C)C=C2)c2ccc(N(C)C)cc2)cc1 [Violet Stearate]	definite increase in absorbance over time
